Experimental data published in PubChem BioAssay (NCI).
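Step 1: Grow cells in 96-well plates. Step 2: Expose to compound for 48 hours at 5 concentrations. Step 3: Interpolate endpoints linearly; if unreached, use highest concentration. Definition used: TGI = concentration required for complete inhibition of growth.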

How the values were obtained:
Assay in all cases: DTP human tumour cell line panel, 48 h
[1] = tested on: SK-MEL-28 melanoma
[2] = tested on: K-562 leukemia
[3] = tested on: SW-620 colon
[4] = tested on: 786-0 renal
[5] = tested on: A549 NSCLC
[6] = tested on: SK-MEL-5 melanoma
[7] = tested on: OVCAR-8 ovarian
[8] = tested on: M14 melanoma
[9] = tested on: KM20L2 colon
[10] = tested on: TK-10 renal
[11] = tested on: SF-539 CNS
[12] = tested on: SN12C renal
[13] = tested on: OVCAR-4 ovarian
[14] = tested on: HOP-62 NSCLC
[15] = tested on: A498 renal
[16] = tested on: M19-MEL melanoma
[17] = tested on: ACHN renal
[18] = tested on: HCT-116 colon
[19] = tested on: SF-268 CNS
[20] = tested on: NCI-H23 lung
[21] = tested on: DLD-1 colon
[22] = tested on: HCC-2998 colon
[23] = tested on: CAKI-1 renal
[24] = tested on: UACC-62 melanoma
[25] = tested on: UO-31 renal
[26] = tested on: MALME-3M melanoma
[27] = tested on: SNB-19 CNS
[28] = tested on: SNB-78 CNS
[29] = tested on: SK-OV-3 ovarian
[30] = tested on: MOLT-4 leukemia
[31] = tested on: HL-60(TB) leukemia
[32] = tested on: NCI-H522 lung
[33] = tested on: COLO 205 colon
[34] = tested on: U251 CNS
[35] = tested on: RXF 393 renal
[36] = tested on: SNB-75 CNS
[37] = tested on: EKVX NSCLC
[38] = tested on: RPMI-8226 leukemia
[39] = tested on: IGROV1 ovarian
[40] = tested on: OVCAR-5 ovarian
[41] = tested on: NCI-H226 lung
[42] = tested on: SK-MEL-2 melanoma
[43] = tested on: HOP-92 NSCLC
[44] = tested on: LXFL 529 NSCLC
[45] = tested on: NCI-H460 lung
[46] = tested on: CCRF-CEM leukemia
[47] = tested on: DMS 114 small cell lung
[48] = tested on: HCT-15 colon
[49] = tested on: LOX IMVI melanoma
[50] = tested on: HT29 colon
[51] = tested on: KM12 colon
[52] = tested on: SR leukemia
[53] = tested on: UACC-257 melanoma
[54] = tested on: OVCAR-3 ovarian
[55] = tested on: SF-295 CNS
[56] = tested on: DMS 273 small cell lung

COC(=O)C(=O)C(CC(=O)Nc1cccc(C(F)(F)F)c1)C(=O)OC (stereo unspecified)
TGI [1]: > 100 µM
TGI [2]: > 100 µM
TGI [3]: > 100 µM
TGI [4]: > 100000 nM
TGI [5]: > 100 µM
TGI [6]: > 100 µM
TGI [7]: > 100 µM
TGI [8]: > 100 µM
TGI [9]: > 100 µM
TGI [10]: > 100 µM
TGI [11]: > 100 µM
TGI [12]: > 100 µM
TGI [13]: > 100 µM
TGI [14]: > 100 µM
TGI [15]: > 100 µM
TGI [16]: > 100 µM
TGI [17]: > 100 µM
TGI [18]: > 100 µM
TGI [19]: > 100 µM
TGI [20]: > 100 µM
TGI [21]: > 100 µM
TGI [22]: > 100 µM
TGI [23]: > 100 µM
TGI [24]: > 100 µM
TGI [25]: > 100 µM
TGI [26]: > 100 µM
TGI [27]: > 100 µM
TGI [28]: > 100 µM
TGI [29]: > 100 µM
TGI [30]: > 100 µM
TGI [31]: > 100 µM
TGI [32]: > 100000 nM
TGI [33]: > 100 µM
TGI [34]: > 100000 nM
TGI [35]: > 100000 nM
TGI [36]: > 100 µM
TGI [37]: > 100 µM
TGI [38]: > 100 µM
TGI [39]: > 100 µM
TGI [40]: > 100 µM
TGI [41]: > 100 µM
TGI [42]: > 100 µM
TGI [43]: > 100 µM
TGI [44]: > 100000 nM
TGI [45]: > 100000 nM
TGI [46]: > 100 µM
TGI [47]: > 100 µM
TGI [48]: > 100000 nM
TGI [49]: > 100 µM

CCCCc1c2c(nc3c1CC/C(=C\c1ccc([N+](=O)[O-])cc1)C3=O)CCCC2
TGI [1]: 3.12 µM
TGI [2]: 6.88 µM
TGI [50]: 2660 nM
TGI [3]: 3.53 µM
TGI [4]: 2770 nM
TGI [5]: 16.3 µM
TGI [7]: 3.47 µM
TGI [8]: 3.34 µM
TGI [9]: 4.01 µM
TGI [10]: 3.17 µM
TGI [11]: 3.2 µM
TGI [12]: 3.34 µM
TGI [14]: 3.29 µM
TGI [51]: 3.52 µM
TGI [16]: 4.59 µM
TGI [17]: 3.28 µM
TGI [18]: 3.22 µM
TGI [19]: 3.93 µM
TGI [21]: 3.42 µM
TGI [22]: 3.17 µM
TGI [24]: 3 µM
TGI [25]: 4.13 µM
TGI [52]: 35.5 µM
TGI [26]: 3.84 µM
TGI [53]: 4.6 µM
TGI [27]: 3.67 µM
TGI [54]: 3.14 µM
TGI [55]: 4.07 µM
TGI [28]: 4.38 µM
TGI [56]: 3.78 µM
TGI [29]: 3.91 µM
TGI [30]: 7.72 µM
TGI [32]: 2840 nM
TGI [33]: 6.63 µM
TGI [34]: 2960 nM
TGI [35]: 2630 nM
TGI [36]: 20.6 µM
TGI [37]: 23.7 µM
TGI [38]: 5.69 µM
TGI [39]: 3.24 µM
TGI [41]: 6.5 µM
TGI [44]: 2680 nM
TGI [45]: 2920 nM
TGI [46]: 6.68 µM
TGI [47]: 4.4 µM
TGI [48]: 1160 nM
TGI [49]: 3.05 µM
